Assay results published in article PMC8000185 (International Journal of Molecular Sciences, 2021).
“And” between values parts separate entries of the source, which are not always exact repeats. Equal entries are not always repeated. Where two headings read alike, the source gives them in different places.

What was measured:
[1] = molecular target: T1, urokinase from human kidney cells (human uPA) (Homo sapiens, UniProt P00749); assay: uPA inhibition assay (fluorescence-based, purified enzyme); assay type: biochemical
T1 construct: low molecular weight active human uPA; purchased Sigma-Aldrich U4010; host or cells: human kidney cells

[2] = molecular target: T2, NHE1 (Homo sapiens, UniProt P19634); assay: Plate-based NHE1 inhibition assay (BCECF pHi recovery, 96-well plate reader); assay type: cell-based
T2 construct: endogenous in cells; host or cells: MDA-MB-231
Experimental: To perform NHE1 screening with increased throughput, we adapted the conventional cuvette-based NHE1 activity assay to a simple new 96-well plate format using MDA-MB-231 cells that were compatible with common laboratory fluorescence plate readers (see Section 4 for details).
Culture media were removed and replaced with 200 µL 0.2% FBS-containing media with incubation for 3–4 h to stimulate NHE1 activity, followed by incubation for 30 min in the presence of 5 µM 2′,7′-bis(carboxyethyl)-5(6)-carboxyfluorescein-acetoxymethyl ester (BCECF-AM, cat #ab143463, Abcam, Cambridge, United Kingdom). Cells were then washed with 100 µL/well Na^+-free acid-load buffer: 10 mM NH4Cl, 1.8 mM CaCl2, 90 mM N-methyl-D-glucamine (from 1 M stock titrated to pH 7.4 with HCl), 5 mM glucose, 15 mM HEPES, 5 mM KCl, 1 mM MgCl2 (pH 7.5, adjusted with KOH), and incubated at 37 °C for a further 30 min. Acid-load buffer was removed and replaced with Na^+-containing assay buffer: 100 mM NaCl, 1.8 mM CaCl2, 5 mM glucose, 15 mM HEPES, 5 mM KCl, 1 mM MgCl2 containing serial dilution of each compound or DMSO vehicle, and changes in fluorescence were read immediately using a BMG Labtech POLARstar OMEGA (BMG Labtech GmbH, Offenburg, Germany) plate reader according to the parameters in Table S1. Compounds were tested at n = 3 technical replicates per concentration per plate. BCECF-AM-free cells were treated with matched concentrations of each compound to correct for intrinsic fluorescence. DMSO was present in all wells at a final concentration of 1% v/v. Inhibition of NHE1-mediated pHi recovery was determined by ratiometric calculation of the change in blank-corrected pH-sensitive fluorescence divided by the isobestic fluorescence for each well over time. […] (0% activity) controls present on each plate. IC50 values were determined through fitting of Log-10 transformed data using the “log(inhibitor) versus normalised response–variable slope” non-linear function in GraphPad PRISM v8.0 software package (GraphPad Software, San Diego, CA, USA).

[3] = molecular target: T2, NHE1; assay: Cuvette-based NHE1 inhibition assay; assay type: cell-based
Experimental: Performed as described in [53]. Briefly, MDA-MB-231 cells were grown to ~80–90% confluence on glass coverslips. Then, 3 µM BCECF were loaded into cells in 400 µL serum-free medium and the fluorescence was measured using a PTI Deltascan spectrofluorometer (Horiba Ltd., Kyoto, Japan). […] A calibration curve of pHi fluorescence was performed for every sample using nigericin [55]. […] IC50 values were determined through fitting of Log-10 transformed data using the “log(inhibitor) versus normalised response–variable slope” non-linear function in GraphPad PRISM v8.0 software package (GraphPad Software, San Diego, USA).

[4] = tested on: NHE1; conditions: read-out: NHE1 IC50 (literature); cited from earlier work
[5] = Cell viability (cytotoxicity) assay; assay type: cell-based; conditions: human, MDA-MB-231 cells, 48 h treatment
Experimental: On the day of treatment, respective compounds were serially diluted using a semi-logarithmic dilution series from 20 mM stocks in neat DMSO into DMEM-high glucose media (10% v/v FBS) in a separate 96-well plate and under sterile conditions. Thereafter, 10 μL of the diluted compounds at their respective concentrations (n = 4) were added to the cells. […] Vehicle media blanks or drug blanks were also included to correct for inherent colour of the compounds and phenol red-containing media. Following 48 h treatment, 20 μL CellTitre 96® Aqueous One Solution Cell Proliferation Assay (Promega, Madison, USA) was added to each well, plates were incubated for 2 h, and absorbance was measured at 490 nm using a SpectraMax Plus 384-well plate reader (Molecular Devices LLC, San Jose, USA) and Softmax PRO v7.0 software. Blank-corrected data were analysed and graphed using GraphPad PRISM v8.0 software (GraphPad Software, San Diego, CA USA).

[6] = molecular target: T3, MDA-MB-231 cell-surface uPA (HMW human active uPA bound to uPAR) (Homo sapiens, UniProt P00749); assay: Cell-surface uPA activity assay; assay type: cell-based; conditions: average ± SEM from four independent assays
T3 construct: pre-incubated with active high molecular weight (HMW) uPA; purchased Molecular Innovations HTC-UPA; host or cells: added to MDA-MB-231 cells (endogenous uPAR)
Experimental: Having identified non-cytotoxic compounds with the desired target selectivity profiles, we then sought to confirm their uPA inhibitory activities in a more physiologically relevant, whole-cell assay. To this end, the fluorogenic biochemical assay was modified to allow measurement of cell-surface uPA activity in MDA-MB-231 cells, which are known to express uPAR [38, 39]. To maximise enzymatic activity, the cells were pre-incubated with active high molecular weight (HMW) uPA to saturate unoccupied uPAR present at the cell surface.
MDA-MB-231 cells were seeded into Greiner CELLSTAR black 96-well plates (Greiner Bio-one, cat #655079) at density 10,000 cells/well in a volume of 100 µL media and cultured for 48 h. On the day of the experiment, cell culture media were removed via shakeout, followed by washing with 100 µL 1 × Dulbecco’s PBS/1 mM CaCl2/1 mM MgCl2/0.1% protease-free bovine serum albumin/pH 7.4 wash buffer. Cells were then incubated in the presence of 25 nM HMW human active uPA (Molecular Innovations, San Diego, CA, USA, SKU: HTC-UPA) in wash buffer for 30 min at RT. Unbound HMW uPA was removed via washing twice with 100 µL wash buffer. […] Plates were read immediately following the addition of substrate using a POLARstar OMEGA fluorescence plate reader (BMG Labtech GmbH, Offenburg, Germany) according to the parameters in Table S1.

[7] = tested on: ENaC; conditions: previously showed; cited from earlier work
[8] = previously showed; cited from earlier work
[9] = MDA-MB-231 cells, plate-reader assay, read-out: NHE1 Plate reader IC50
[10] = purified enzyme, Z-Gly-Gly-Arg-AMC substrate, number in parentheses after value, read-out: uPA IC50
[11] = 10 μM, MDA-MB-231 cells, plate reader
[12] = plate-reader value as printed in nM in text, read-out: NHE1 IC50
[13] = MDA-MB-231 cells, cuvette assay, read-out: NHE1 Cuvette IC50

T2 sequence (P19634 whole entry): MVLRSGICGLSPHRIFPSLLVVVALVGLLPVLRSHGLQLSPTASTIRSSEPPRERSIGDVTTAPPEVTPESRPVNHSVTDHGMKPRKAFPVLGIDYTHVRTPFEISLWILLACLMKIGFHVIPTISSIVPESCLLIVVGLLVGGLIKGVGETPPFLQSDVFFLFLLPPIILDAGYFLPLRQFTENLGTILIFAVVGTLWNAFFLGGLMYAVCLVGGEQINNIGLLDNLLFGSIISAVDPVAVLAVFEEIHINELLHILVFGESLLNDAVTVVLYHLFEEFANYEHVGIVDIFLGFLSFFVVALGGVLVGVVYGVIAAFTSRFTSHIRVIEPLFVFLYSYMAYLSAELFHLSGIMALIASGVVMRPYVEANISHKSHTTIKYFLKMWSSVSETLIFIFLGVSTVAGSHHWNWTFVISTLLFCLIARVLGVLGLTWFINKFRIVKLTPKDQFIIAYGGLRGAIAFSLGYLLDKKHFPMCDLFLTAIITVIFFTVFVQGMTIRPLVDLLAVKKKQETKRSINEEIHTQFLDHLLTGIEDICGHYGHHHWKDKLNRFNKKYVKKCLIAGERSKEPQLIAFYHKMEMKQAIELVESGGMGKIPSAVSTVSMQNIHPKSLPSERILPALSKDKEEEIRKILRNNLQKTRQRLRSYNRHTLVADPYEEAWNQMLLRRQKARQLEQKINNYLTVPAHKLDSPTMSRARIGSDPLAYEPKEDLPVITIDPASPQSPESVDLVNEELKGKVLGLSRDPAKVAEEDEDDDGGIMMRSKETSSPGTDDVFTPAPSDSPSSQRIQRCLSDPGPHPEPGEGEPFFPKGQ

SMILES | IC50 [1, 10] | inhibition at 1 µM ([2]; MDA-MB-231 cells, plate reader) [%] | inhibition at 10 µM [2, 11] [%] | IC50 at 48 h [5] [µM] | also measured
CC(=O)N1CCC(c2ccc(C(=O)NC(=N)N)cc2C(F)(F)F)CC1 [BI-9627, reference compound] |  |  |  |  | IC50 ([1]; human uPA, fluorometric method, Figure S1, read-out: uPA IC50 (not reached at the highest concentration tested)): > 50 µM; IC50 ([2]; Figure S1 representative curve, n = 3 technical replicates, read-out: NHE1 IC50 of curve shown, plate reader assay): 1.4 nM; IC50 [2, 9]: 3 ± 0.8 nM; IC50 ([3]; Figure S1, n = 6 technical replicates/concentration, read-out: NHE1 IC50, cuvette assay): 0.0075 µM; IC50 [4]: 0.006 µM
N=C(N)NC(=O)c1nc(Cl)c(N2CCOCC2)nc1N [compound 29] | 10.9 µM | 85 | 100 | > 100 | NHE1 selectivity ratio (selectivity over uPA) [2]: 85 fold; IC50 [2, 12]: 129 nM; IC50 [3, 13]: 0.166 µM
N=C(N)NC(=O)c1nc(-c2cnc(NCCO)nc2)c(N2CCCCCC2)nc1N [compound 28] | 0.067 ± 0.003 µM | 0 | 15 | > 100 | 
N=C(N)NC(=O)c1nc(-c2cc3cc(Br)ccc3o2)c(N)nc1N [compound 12] | 5.93 µM | 0 | 97 | 32.1 | 
N=C(N)NC(=O)c1nc(-c2cc3cnccc3o2)c(N2CCCCCC2)nc1N [compound 19] | 0.164 µM | 23 | 100 | 69.4 | 
CCN(c1nc(N)c(C(=O)NC(=N)N)nc1-c1cc2ccccc2o1)C(C)C [compound 33] | 1.6 µM | 8 | 41 | 17.2 | decrease in uPA activity on opening the 5-alkylamino ring ([1]; within the 6-(2-benzofuranyl) series): > 5 fold
N=C(N)NC(=O)c1nc(Cl)c(N2CCCCCC2)nc1N [HMA, 5-(N,N-hexamethylene)amiloride, reference compound] | 2.21 µM | 66 | 100 | 32.1 | NHE1 Inhibition (%) 10 μM [2, 11]: completely blocking activity
N=C(N)NC(=O)c1nc(Cl)c(N2CCCOCC2)nc1N [compound 30] | 5.72 µM | 91 | 100 | 95.6 | NHE1 selectivity ratio (selectivity over uPA) [2]: 67 fold; IC50 [2, 12]: 85 nM; IC50 [3, 13]: 0.093 µM
N=C(N)NC(=O)c1nc(-c2cc3cc(Cl)ccc3o2)c(N2CCCCCC2)nc1N [compound 11] |  | 0 | 0 | 26.4 | inhibition at 2.5 µM ([1]; @ 2,500 nM, read-out: uPA inhibition at single concentration (printed in uPA IC50 column)): 49%
N=C(N)NC(=O)c1nc(-c2cc3cc(Br)ccc3o2)c(N2CCCCCC2)nc1N [compound 13] | 2.56 µM | 0 | 0 | 6.2 | 
N=C(N)NC(=O)c1nc(-c2cncnc2)c(N2CCOCC2)nc1N [compound 41] | 0.563 ± 0.029 µM | 77 | 87 | > 100 | 
N=C(N)NC(=O)c1nc(-c2cc3ccccc3o2)c(NC2CCCCCC2)nc1N [compound 35] | 30.2 µM | 0 | 0 | 26.2 | 
N=C(N)NC(=O)c1nc(-c2cc3cc(F)cc(F)c3o2)c(N)nc1N [compound 16] | 0.609 ± 0.026 µM | 7 | 52 | 4.7 | 
N=C(N)NC(=O)c1nc(-c2ccc(C(F)(F)F)cc2)c(C2CC2)nc1N [compound 40] | 16.2 µM | 28 | 80 | 26.6 | 
N=C(N)NC(=O)c1nc(-c2cncnc2)c(N2CCCCCC2)nc1N [compound 24] | 0.175 µM and < 0.3 µM | 80 | 96 | > 100 | uPA selectivity ratio ([1]; uPA over NHE1): 1.5; IC50 [2, 12]: 266 nM and < 300 nM; IC50 [3, 13]: 0.397 µM; IC50 [6]: 0.13 ± 0.01 µM; ENaC activity in vitro [7]: no ENaC activity; K+-sparing or diuretic effects in vivo [8]: no K^+-sparing or diuretic effects
N=C(N)NC(=O)c1nc(-c2cc3ccccc3o2)c(N2CCCCC2)nc1N [compound 32] | 1.88 µM | 69 | 100 | 16.2 | 
Cc1ccc2oc(-c3nc(C(=O)NC(=N)N)c(N)nc3N3CCCCCC3)cc2c1 [compound 7] | 1.18 µM | 5 | 100 | 8.8 | 
N=C(N)NC(=O)c1nc(Cl)c(N)nc1N [AML, Amiloride, reference compound] |  | 7 | 64 | > 100 | IC50 [4]: […]
N=C(N)NC(=O)c1nc(-c2cc3ccccc3o2)c(N2CCCCCC2)nc1N [compound 5] | 0.297 ± 0.016 µM | 39 | 72 | 19.1 | 
N=C(N)NC(=O)c1nc(-c2cc3cc(F)ccc3o2)c(N)nc1N [compound 8] | 0.954 ± 0.072 µM | 0 | 75 | 10.6 | 
COc1ncc(-c2nc(C(=O)NC(=N)N)c(N)nc2N2CCCOCC2)cn1 [compound 43] | 0.267 ± 0.014 µM | 0 | 16 | > 100 | 
N=C(N)NC(=O)c1nc(-c2ccc(C(F)(F)F)cc2)c(N2CCCC2)nc1N [compound 39] | 6.19 µM | 95 | 100 | 23.9 | IC50 [2, 9]: 605 ± 134 nM; IC50 [3, 13]: 0.441 µM
